Test results published in PMC9016712 (ACS Chemical Biology, 2022).
Like-named read-outs stand apart in the source and are kept apart here. [ ]: non-standard residue; d: D form. Dap = NC[C@H](N)C(=O)O

Columns and labels:
MASP-2 [1] = test: recombinant catalytic fragment of human MASP-2; details: up to 1 h
MASP-1 = details: cited from earlier work
MASP-2 [2] = details: cited from earlier work
trypsin = details: fold more potent than tested SFMI2 variants; cited from earlier work

Ac-GY[Dap]SRSYPPVCIPD-NH2
cleaved bond (MASP-2 [1]): Arg5-Ser6, 1 h

SFTI: 14-amino acid sunflower trypsin inhibitor, smallest natural canonical trypsin inhibitor, cyclic
MASP-1 inhibition (MASP-1): does not inhibit the MASPs | MASP-2 inhibition (MASP-2 [2]): does not inhibit the MASPs | MASP-2 inhibition (MASP-2 [2]; listed as wild-type SFTI): does not inhibit MASP-2 at all | potency on trypsin relative to SFMI2 variants (trypsin): about 1000 fold

HELM PEPTIDE1{[ac].G.Y.C.S.R.S.Y.P.P.V.C.I.P.D.[am]}$PEPTIDE1,PEPTIDE1,4:R3-12:R3$$$V2.0 (SMILES CC[C@H](C)[C@H](NC(=O)[C@@H]1CSSC[C@H](NC(=O)[C@H](Cc2ccc(O)cc2)NC(=O)CNC(C)=O)C(=O)N[C@@H](CO)C(=O)N[C@@H](CCCNC(=N)N)C(=O)N[C@@H](CO)C(=O)N[C@@H](Cc2ccc(O)cc2)C(=O)N2CCC[C@H]2C(=O)N2CCC[C@H]2C(=O)N[C@@H](C(C)C)C(=O)N1)C(=O)N1CCC[C@H]1C(=O)N[C@@H](CC(=O)O)C(N)=O)
cleaved bond (MASP-2 [1]): Arg5-Ser6, 1 h
